# From article PMC9386806 (ACS Omega, 2022)
# Biological target: hCA II (Homo sapiens, UniProt P00918)
# Test: biochemical
row,Structure (SMILES),IC50
1,"COC(=O)C1=C(N)Oc2c(c(=O)oc3ccc(C)cc23)C1c1ccccc1OCc1cc2ccccc2oc1=O (stereo not shown) [Compound 12e, 2-Amino-9-methyl-5-oxo-4-[2-(2-oxo-2H-chromen-3-ylmethoxy)-phenyl]-4H,5H-pyrano[3,2-c]chromene-3-carboxylic Acid Methyl Ester]",21.8 ± 3.32 µM
2,"N#CC1=C(N)Oc2c(c(=O)oc3cc(O)ccc23)C1c1ccccc1OCc1cc2ccccc2oc1=O (stereo not shown) [Compound 12h, 2-Amino-8-hydroxy-5-oxo-4-[2-(2-oxo-2H-chromen-3-ylmethoxy)-phenyl]-4H,5H-pyrano[3,2-c]chromene-3-carbonitrile]",4.55 ± 0.22 µM
3,"COC(=O)C1=C(N)Oc2c(c(=O)oc3cc(O)ccc23)C1c1ccccc1OCc1cc2ccccc2oc1=O (stereo not shown) [Compound 12i, 2-Amino-8-hydroxy-5-oxo-4-[2-(2-oxo-2H-chromen-3-ylmethoxy)-phenyl]-4H,5H-pyrano[3,2-c]chromene-3-carboxylic Acid Methyl Ester]",4.91 ± 1.13 µM
4,"CCOC(=O)C1=C(N)Oc2c(c(=O)oc3cc(O)ccc23)C1c1ccccc1OCc1cc2ccccc2oc1=O (stereo not shown) [Compound 12j, 2-Amino-8-hydroxy-5-oxo-4-[2-(2-oxo-2H-chromen-3-ylmethoxy)-phenyl]-4H,5H-pyrano[3,2-c]chromene-3-carboxylic Acid Ethyl Ester]",7.78 ± 0.08 µM
